Measurements as given in ChEMBL document CHEMBL4828727, “Antibacterial and antitumoral properties of 1,2,3-triazolo fused triterpenes and their mechanism of inhibiting the proliferation of HL-60 cells” (Eur J Med Chem, 2021).
≈ marks a conversion by molar mass, not a printed value.

Assays:
LN-229 = assay: Antiproliferative activity against human LN-229 cells assessed as inhibition of cell viability measured after 72 hrs by colorimetric MTS viability assay; format: functional, cell-based; conditions: LN-229, 72 h
HCT-116 = assay: Antiproliferative activity against human HCT-116 cells assessed as inhibition of cell viability measured after 72 hrs by colorimetric MTS viability assay; format: functional, cell-based; conditions: HCT-116, 72 h
NCI-H460 = assay: cells; format: functional, cell-based; conditions: Homo sapiens, NCI-H460, 72 h
Description: Antiproliferative activity against human NCI-H460 cells assessed as inhibition of cell viability measured after 72 hrs by colorimetric MTS viability assay

Rec1 = assay: cells; format: functional, cell-based; conditions: Homo sapiens, Rec1, 72 h
Description: Cytotoxicity against human REC1 cells assessed as inhibition of cell viability measured after 72 hrs by real-time IncuCyte proliferation analysis

HL-60 [1] = assay: Induction of apoptosis in human HL-60 cells assessed as late apoptotic cells at 10 uM after 48 hrs by Annexin V-PE/7-AAD dual staining based flow cytometry (reference value: 3.93%); format: functional
HL-60 [2] = assay: Induction of apoptosis in human HL-60 cells assessed as necrotic cells at 10 uM after 48 hrs by Annexin V-PE/7-AAD dual staining based flow cytometry (reference value: 2.64 to 3.64%); format: functional
HL-60 [3] = assay: Induction of apoptosis in human HL-60 cells assessed as early apoptotic cells at 6 uM in presence of 3-MA after 48 hrs by Annexin V-PE/7-AAD dual staining based flow cytometry (reference value: 3.14%); format: functional
HL-60 [4] = assay: Induction of apoptosis in human HL-60 cells assessed as necrotic cells at 6 uM in presence of 3-MA after 48 hrs by Annexin V-PE/7-AAD dual staining based flow cytometry (reference value: 2.62%); format: functional
HL-60 [5] = assay: Induction of apoptosis in human HL-60 cells assessed as late apoptotic cells at 8 uM in presence of 3-MA after 48 hrs by Annexin V-PE and 7AAD based flow cytometry (reference value: 3.12%); format: functional
HL-60 [6] = assay: Induction of apoptosis in human HL-60 cells assessed as necrotic cells at 8 uM in presence of 3-MA after 48 hrs by Annexin V-PE and 7AAD based flow cytometry (reference value: 2.62%); format: functional
HL-60 [7] = assay: Induction of apoptosis in human HL-60 cells assessed as live cells at 10 uM in presence of 3-MA after 48 hrs by Annexin V-PE/7-AAD dual staining based flow cytometry (reference value: 91.1%); format: functional
HL-60 [8] = assay: Induction of apoptosis in human HL-60 cells assessed as early apoptotic cells at 10 uM in presence of 3-MA after 48 hrs by Annexin V-PE/7-AAD dual staining based flow cytometry (reference value: 3.14%); format: functional
HL-60 [9] = assay: Induction of mitochondrial membrane potential loss in human HL-60 cells at 6 uM after 48 hrs by JC-1 staining based flow cytometry (reference value: 3.49%); format: functional
Listeria innocua = assay: Antibacterial activity against Listeria innocua LMG11387 assessed as growth inhibition after 20 hrs by broth microdilution method; format: functional
HL-60 [10] = assay: Cell cycle arrest in human HL-60 cells assessed as increase in accumulation in G0/G1 phase at 8 uM incubated for 48 hrs by propidium iodide staining based flow cytometric analysis (reference value: 64.97%); format: functional
HL-60 [11] = assay: Cell cycle arrest in human HL-60 cells assessed as increase in accumulation in G0/G1 phase at 10 uM incubated for 48 hrs by propidium iodide based flow cytometric analysis (Rvb =64.97%); format: functional
HL-60 [12] = assay: Cell cycle arrest in human HL-60 cells assessed as decrease in accumulation in S phase at 10 uM incubated for 48 hrs by propidium iodide based flow cytometric analysis (reference value: 28.42%); format: functional; design: scale not given: the % may be the effect or the level left
HL-60 [13] = assay: Induction of autophagy in human HL-60 cells assessed as fold increase in MDC fluorescence intensity at 8 uM measured after 48 hrs by flow cytometry relative to control; format: functional
HL-60 [14] = assay: Induction of autophagy in human HL-60 cells assessed as fold increase in MDC fluorescence intensity at 10 uM measured after 48 hrs by flow cytometry relative to control; format: functional

COc1ccc2[nH]cc(CCn3nnc4c3C(C)(C)[C@@H]3CC[C@]5(C)[C@H](CC=C6[C@@H]7CC(C)(C)CC[C@]7(C(=O)O)CC[C@]65C)[C@@]3(C)C4)c2c1
IC50 (LN-229): 44.1 µM | IC50 (HCT-116): 15.2 µM | IC50 (NCI-H460): 12.5 µM | IC50 (Rec1): 6.2 µM | Activity (HL-60 [1]): 63.2% | Activity (HL-60 [2]): 0.628% | Activity (HL-60 [3]): 3.91% | Activity (HL-60 [4]): 0.358% | Activity (HL-60 [5]): 8.89% | Activity (HL-60 [6]): 2.21% | Activity (HL-60 [7]): 54.2% | Activity (HL-60 [8]): 14.7% | Activity (HL-60 [9]): 7.86% | MIC50 (Listeria innocua): 103 µg/mL (≈ 158 µM) | Activity (HL-60 [10]): 73.3% | Activity (HL-60 [11]): 85.45% | Activity (HL-60 [12]): 11.39% | fold change (FC) (HL-60 [13]): 1.72 | fold change (FC) (HL-60 [14]): 2
